Experimental data published in ChEMBL document CHEMBL5038680, “Design, Synthesis, and Evaluation of PD-1/PD-L1 Antagonists Bearing a Benzamide Scaffold” (ACS Med Chem Lett, 2022).
The source made the active and inactive calls. The rule behind the calls is not given here.

Experiments:
[1] = target: T1, Programmed cell death protein 1/Programmed cell death 1 ligand 1 (Homo sapiens, UniProt Q15116+Q9NZQ7); test: Inhibition of PD-1/PDL-1 (unknown origin) interaction at 1 uM incubated for 15 mins by TR-FRET assay; assay type: protein-complex assay
[2] = target: T1, Programmed cell death protein 1/Programmed cell death 1 ligand 1; test: Inhibition of PD-1/PDL-1 (unknown origin) interaction incubated for 15 mins by TR-FRET assay; assay type: protein-complex assay
MDA-MB-231 [3] = test: Cytotoxicity against human MDA-MB-231 cells assessed as cell killing at 2 uM incubated for 24 hrs by LDH assay; assay type: functional, cell-based
MDA-MB-231 [4] = test: Cytotoxicity against human MDA-MB-231 cells assessed as cell killing by PBMC cell activation at 1 uM incubated for 24 hrs by LDH assay; assay type: functional, cell-based

T1 sequence (Q15116 whole entry): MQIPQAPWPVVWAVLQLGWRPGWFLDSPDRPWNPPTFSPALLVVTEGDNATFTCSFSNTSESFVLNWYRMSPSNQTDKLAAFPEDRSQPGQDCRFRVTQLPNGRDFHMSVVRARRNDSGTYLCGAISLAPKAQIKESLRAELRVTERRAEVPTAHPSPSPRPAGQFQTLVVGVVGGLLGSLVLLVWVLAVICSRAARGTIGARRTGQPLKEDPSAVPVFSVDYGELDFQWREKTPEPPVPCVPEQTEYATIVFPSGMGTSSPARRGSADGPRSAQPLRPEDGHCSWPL
T1 sequence (Q9NZQ7 whole entry): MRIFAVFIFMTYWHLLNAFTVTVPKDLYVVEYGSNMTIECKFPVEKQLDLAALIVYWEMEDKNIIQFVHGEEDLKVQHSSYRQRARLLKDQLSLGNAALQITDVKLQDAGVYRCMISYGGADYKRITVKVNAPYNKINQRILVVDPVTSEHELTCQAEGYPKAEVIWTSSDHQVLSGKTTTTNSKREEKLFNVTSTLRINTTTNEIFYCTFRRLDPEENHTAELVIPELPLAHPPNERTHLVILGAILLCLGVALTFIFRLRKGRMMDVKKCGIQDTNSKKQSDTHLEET

`COc1nc(NC(=O)c2cccc(-c3ccccc3)c2Cl)ccc1CNCCNC(C)=O` showed an inhibition [1] of 28.2% and an IC50 [2] of over 1000 nM.

Work on `CC(=O)NCCNCc1ccc(NC(=O)c2cccc(-c3ccc4c(c3)OCCO4)c2Cl)nc1` yielded an IC50 [2] of 284 nM.

Molecule `COc1cccc(-c2cccc(C(=O)Nc3ccc(CNCCNC(C)=O)cn3)c2Cl)c1` has an inhibition [1] of 46.1% and an IC50 [2] of over 1000 nM.

In the case of `CC(=O)NCCNCc1ccc(NC(=O)c2cccc(-c3ccccc3)c2Cl)nc1`, the IC50 [2] is reported as 496 nM.

`O=C(Nc1ccc(CN2CC(C(=O)O)C2)cn1)c1cccc(-c2ccccc2)c1Cl` was tested, and the IC50 [2] was 645 nM.

`O=C(Nc1ccc(CNC[C@@H](O)CO)cn1)c1cccc(-c2ccccc2)c1Cl` was tested, and the IC50 [2] was 442 nM.

Work on `CC(=O)NCCNCc1ccc(NC(=O)c2cccc(-c3ccccc3)c2C)nc1` yielded an inhibition [1] of 44.2% and an IC50 [2] of over 1000 nM.

Molecule `O=C(Nc1ccc(CN2CCCC[C@H]2C(=O)O)cn1)c1cccc(-c2ccccc2)c1Cl` has an inhibition [1] of 41.2% and an IC50 [2] of over 1000 nM.

`CC(=O)NCCNCc1cccc(NC(=O)c2cccc(-c3ccccc3)c2Cl)n1` gave an inhibition [1] of 15.8% and an IC50 [2] of over 1000 nM.

Molecule `CC(=O)NCCNCc1ccc(NC(=O)c2cccc(-c3ccccc3)c2Cl)cc1` has an inhibition [1] of 9.86% and an IC50 [2] of over 1000 nM.

In the case of `O=C(Nc1ccc(CN2CC[C@H](C(=O)O)C2)cn1)c1cccc(-c2ccc3c(c2)OCCO3)c1Cl`, the Activity (MDA-MB-231 [3]) is reported as “inactive”, the IC50 [2] is reported as 16.2 nM and the Activity (MDA-MB-231 [4]) is reported as “Active”.

`COCCNCc1ccc(NC(=O)c2cccc(-c3ccccc3)c2Cl)nc1` gave an IC50 [2] of 797 nM.

`O=C(Nc1ccc(CNCCO)c(F)n1)c1cccc(-c2ccccc2)c1Cl` showed an IC50 [2] of 429 nM.

In the case of `CC(=O)NCCNCc1ccc(NC(=O)c2cccc(-c3ccccc3)c2Cl)nc1F`, the IC50 [2] is reported as 581 nM.

`CN(C)CCNCc1ccc(NC(=O)c2cccc(-c3ccccc3)c2Cl)nc1` was tested, and the inhibition [1] was 27.7% and the IC50 [2] was over 1000 nM.

In the case of `COc1ccccc1-c1cccc(C(=O)Nc2ccc(CNCCNC(C)=O)cn2)c1Cl`, the inhibition [1] is reported as 5.52% and the IC50 [2] is reported as over 1000 nM.

For `CC(=O)NCCNCc1ccc(NC(=O)c2cccc(-c3ccc(S(C)(=O)=O)cc3)c2Cl)nc1`, the inhibition [1] was “inactive” and the IC50 [2] was over 1000 nM.

Work on `CC(=O)NCCNCc1ccc(NC(=O)c2cccc(-c3ccccc3)c2Cl)nc1C(F)(F)F` yielded an inhibition [1] of 33.8% and an IC50 [2] of over 1000 nM.

Work on `CC(=O)NCCNCc1ccc(NC(=O)c2cccc(-c3cccc(CO)c3)c2Cl)nc1` yielded an inhibition [1] of 2.5% and an IC50 [2] of over 1000 nM.

`O=C(Nc1ccc(CN2CC[C@H](C(=O)O)C2)cn1)c1cccc(-c2ccccc2)c1Cl` showed an IC50 [2] of 173 nM.

`COc1nc(NC(=O)c2cccc(-c3ccccc3)c2Cl)ccc1CNCCN(C)C` was tested, and the inhibition [1] was 11.6% and the IC50 [2] was over 1000 nM.

In the case of `COC1CN(Cc2ccc(NC(=O)c3cccc(-c4ccccc4)c3Cl)nc2)C1`, the inhibition [1] is reported as 44% and the IC50 [2] is reported as over 1000 nM.

In the case of `O=C(Nc1ccc(CN2CC[C@H](C(=O)O)C2)cn1)c1cccc(-c2ccc3c(c2)OCCO3)c1Br`, the IC50 [2] is reported as 46.5 nM.

`O=C(Nc1ccc(CNCCO)c(C(F)(F)F)n1)c1cccc(-c2ccccc2)c1Cl` was tested, and the inhibition [1] was 41.5% and the IC50 [2] was over 1000 nM.

For `CO[C@H]1CCc2c(-c3cccc(C(=O)Nc4ccc(CNCCNC(C)=O)cn4)c3Cl)cccc21`, the inhibition [1] was 7.75% and the IC50 [2] was over 1000 nM.

In the case of `CC(=O)NCCNCc1ccc(NC(=O)c2cccc(-c3cccc4c3CC[C@@H]4O)c2Cl)nc1`, the inhibition [1] is reported as “inactive” and the IC50 [2] is reported as over 1000 nM.

Work on `CC(=O)NCCNCc1ccc(NC(=O)c2cccc(-c3ccc(F)c(F)c3)c2Cl)nc1` yielded an inhibition [1] of 2.32% and an IC50 [2] of over 1000 nM.

With `O=C(Nc1ccc(CN2CC[C@H](C(=O)O)C2)cn1)c1cccc(-c2ccc3c(c2)OCCO3)c1` the inhibition [1] was “inactive” and the IC50 [2] was over 1000 nM.

Molecule `O=C(Nc1ccc(CNCCO)cn1)c1cccc(-c2ccccc2)c1Cl` has an IC50 [2] of 502 nM.

`COc1ccc(-c2cccc(C(=O)Nc3ccc(CNCCNC(C)=O)cn3)c2Cl)cc1` gave an inhibition [1] of 8.37% and an IC50 [2] of over 1000 nM.

`O=C(Nc1ccc(CN2CC(O)C2)cn1)c1cccc(-c2ccccc2)c1Cl` was tested, and the IC50 [2] was 528 nM.

With `CC(=O)NCCNCc1ccc(NC(=O)c2cccc(-c3cc(F)c(F)c(F)c3)c2Cl)nc1` the inhibition [1] was 3.52% and the IC50 [2] was over 1000 nM.

`COc1ccc(-c2cccc(C(=O)Nc3ccc(CNCCNC(C)=O)cn3)c2Cl)cc1OC` showed an IC50 [2] of over 1000 nM.

In the case of `CC(=O)NCCNCc1ccnc(NC(=O)c2cccc(-c3ccccc3)c2Cl)c1`, the IC50 [2] is reported as 894 nM.

Molecule `COCCOc1cccc(-c2cccc(C(=O)Nc3ccc(CNCCNC(C)=O)cn3)c2Cl)c1` has an inhibition [1] of 5.29% and an IC50 [2] of over 1000 nM.

Work on `O=C(Nc1ccc(CN2CC[C@@H](O)C2)cn1)c1cccc(-c2ccccc2)c1Cl` yielded an IC50 [2] of 373 nM.

`CC(=O)NCCNCc1ccc(NC(=O)c2cccc(-c3ccc(F)cc3)c2Cl)nc1` gave an inhibition [1] of 6.96% and an IC50 [2] of over 1000 nM.

For `O=C(Nc1ccc(CN2CC[C@H](C(=O)O)C2)cn1)c1cccc(-c2ccc3c(c2)OCCO3)c1F`, the inhibition [1] was “inactive” and the IC50 [2] was over 1000 nM.

With `COC(=O)[C@H]1CCN(Cc2ccc(NC(=O)c3cccc(-c4ccccc4)c3Cl)nc2)C1` the inhibition [1] was 50.6% and the IC50 [2] was over 1000 nM.

`CC(=O)NCCNCc1ccc(NC(=O)c2cccc(-c3ccncc3)c2Cl)nc1` was tested, and the inhibition [1] was “inactive” and the IC50 [2] was over 1000 nM.

In the case of `O=C(Nc1ccc(CN2CCC(O)CC2)cn1)c1cccc(-c2ccccc2)c1Cl`, the IC50 [2] is reported as 460 nM.

Work on `COC(=O)C1CN(Cc2ccc(NC(=O)c3cccc(-c4ccccc4)c3Cl)nc2)C1` yielded an inhibition [1] of 32.5% and an IC50 [2] of over 1000 nM.
